The test system of series [1] is 22Rv1, LNCaP, PC3, PWR-1E and MCF-7 cells. The experiment in a line: Antiproliferation assay across all cell lines. It is filed as cell-based. The note with it: Homo sapiens, 72 h. The method, then: (§1) Antiproliferation assay: To determine the amount of Cu(II) required for cell studies a checkerboard assay was performed by varying the prodrug or drug concentration and Cu(II) concentration. 22RV1, LNCaP, PC3, MCF-7, and PWR-1E (5,000 cells/well) were seeded in 96-well plates with regular media (22Rv1, LNCaP, and PC-3 in RPMI with 10% FBS; MCF-7 in DMEM with 10% FBS; PWR-1E in Keratinocyte-SFM) and let adhere for 24 h. The following day, the media was replaced with serum free media and cells were treated as indicated for an additional 24 h or 72 h. Cell proliferation was measured using a fluorometric resazurin reduction method. 20 μL of 700 μM Resazurin (Sigma R7017) was added in each well and incubated at 37° C. for 2 h. Fluorescence at 580 nm was measured by exciting at 555 nm with a plate reader. Each experiment was performed in triplicate, and the experiments were repeated three times. Viability vs drug concentration plot from a representative experiment are shown with standard deviation from the experiment as error bar. The error bar in IC50 values represents standard deviation from three different experiments.

A further series deals with mCRPC patients. The conditions noted are these: phase 1, mCRPC patients; cited from earlier work.
Another series relates to LNCaP cells. The series is described as follows: cells. It is filed as cell-based, human. How it is done:
as §1

The next series deals with PWR-1E cells. The series is described as follows: cells. Format: cell-based, human. How it is done: as §1
The next series concerns PC-3 cells. The experiment in a line: cells. It is filed as cell-based, human. How it is done: as §1
In another series the test system is MCF-7 cells. The series is described as follows: cells. It is filed as cell-based, human. The method, then: as §1
A further series has as its system 22Rv1 cells. The experiment in a line: cells. It is filed as cell-based, human. The method, then: as §1
The next series deals with aminopeptidases. The series is described as follows: Further treatment with aminopeptidases (DTC release). Format: biochemical. The conditions noted are these: after PSA treatment. How it is done: (§2) It is hypothesized that the […] enzyme cleaves the peptide bond between Tyr and Ser. The cleaved products are shown in Scheme 2. When treated with 20 μg/mL of PSA, PSA-DTC was completely converted to products within 6 h (FIG. 6A).

Series [2] is classed as in vitro ADME, human. How it is done:
Conditioned media from prostate cancer cell line, LNCaP, was used to test the cleavage of prodrug. […] Since DTC is not observed in the UV or mass spectrometer, Cu(II) was added before recording mass spectra to visualize the release of DTC. Cu(DTC)2 complex was observed indicating the release of DTC. PSA-DTC was completely cleaved within 4 h.

Another series concerns the target PSA enzyme (Homo sapiens, UniProt P07288). The series is described as follows: In vitro cleavage by PSA enzyme (LC trace). Format: biochemical. The conditions noted are these: 20 μg/mL of PSA. The method, then:
as §2

A further series addresses GGT (Homo sapiens, UniProt P19440). The series is described as follows: Competition experiments vs. γE-pNA for GGT. The conditions noted are these: vs E-pNA; PBS, pH 7.4, 1 mM GlyGly. Format: biochemical. The method, then: Competition experiments vs. γE-pNA for GGT: To perform the inhibition study, a serial dilution of γE-pNA was performed ranging from 1 mM to 3 μM in PBS with 1 mM Gly-Gly (dilution factor=0.5; pH 7.4; 10% DMSO; 100 μL) using a clear, flat bottom 96 well plate. GGT binding molecules, as indicated, were added to separate sets of triplicate wells to reach a final concentration of 10 and 100 μM. Before the addition of enzyme, the plate was cooled to 4° C. for 15 min. To initiate the assay, 10 μL of 50 U/L GGT was added to each well and an initial absorbance scan was performed. Subsequent scans were performed every 10 min for ˜2 h. In between each scan, the plates were stored at 37° C. in a humidified incubator to reduce solvent evaporation. The experiment was repeated in triplicate.
To probe the reactivity of Glu-DTC in comparison to the enzyme's natural substrate GSH, competition experiments were conducted against the colorimetric substrate L-glutamic acid γ-(p-nitroanilide) [E-pNA]. The colorimetric assay involves monitoring p-nitroaniline release by absorbance at 405 nm upon reaction of the probe substrate E-pNA with GGT in the presence of an inhibiting substrate, either Glu-DTC (FIG. 15A) or GSH (FIG. 15C).

Where two headings read alike, the source gives them in different places. Non-standard residues stand in square brackets, D forms with d. Residues, ends and D or L forms follow the SMILES beside them. *: point of attachment. X1 = CCN(CC)C(=S)SCc1ccc(N*)cc1 Some results are limits rather than exact numbers.

Broadly, the IC50 is the concentration that inhibits the measured activity by half. As usually defined, the Ki is the equilibrium dissociation constant of an inhibitor or competing ligand from its target.

PSA enzyme, sequence (P07288 25-261): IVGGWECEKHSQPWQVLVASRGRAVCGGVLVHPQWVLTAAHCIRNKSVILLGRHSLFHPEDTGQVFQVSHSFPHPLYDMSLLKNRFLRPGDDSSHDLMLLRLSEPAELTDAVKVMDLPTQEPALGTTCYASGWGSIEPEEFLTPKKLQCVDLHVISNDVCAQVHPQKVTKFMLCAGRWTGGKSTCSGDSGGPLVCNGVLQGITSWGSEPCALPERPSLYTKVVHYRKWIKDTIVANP
GGT, sequence (P19440 whole entry, species assumed): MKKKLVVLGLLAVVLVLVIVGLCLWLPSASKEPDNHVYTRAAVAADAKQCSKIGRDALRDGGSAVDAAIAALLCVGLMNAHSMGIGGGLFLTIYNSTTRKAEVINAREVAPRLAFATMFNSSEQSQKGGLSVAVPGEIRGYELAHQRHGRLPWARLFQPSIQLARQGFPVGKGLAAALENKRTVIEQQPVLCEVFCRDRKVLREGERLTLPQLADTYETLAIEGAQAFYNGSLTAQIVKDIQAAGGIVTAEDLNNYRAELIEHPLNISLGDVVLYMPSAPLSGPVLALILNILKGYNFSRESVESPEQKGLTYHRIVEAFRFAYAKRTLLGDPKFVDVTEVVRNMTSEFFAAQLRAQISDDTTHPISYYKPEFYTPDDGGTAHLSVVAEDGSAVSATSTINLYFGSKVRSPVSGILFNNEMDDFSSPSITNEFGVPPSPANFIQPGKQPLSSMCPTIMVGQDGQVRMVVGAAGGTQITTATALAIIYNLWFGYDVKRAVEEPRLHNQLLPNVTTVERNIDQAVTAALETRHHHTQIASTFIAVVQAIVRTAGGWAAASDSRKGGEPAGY

For `CCN(CC)C(=S)SSC(=S)N(CC)CC` [DSF, disulfiram, reference compound], the IC50 in [1] (1 μM CuSO4, read-out: IC50 range across all cell lines) was 40 to 150 nM; in series [1] (DSF is a dimer of DTC, read-out: IC50 per monomer), 80 to 300 nM; in the series on LNCaP cells (Homo sapiens, LNCaP, 24 h, LNCaP, 24 h, 1 μM CuSO4, read-out: IC50 with 1 μM CuSO4), 130 ± 20 nM; with LNCaP cells (Homo sapiens, LNCaP, 72 h, LNCaP, 72 h, 1 μM CuSO4, read-out: IC50 with 1 μM CuSO4), 140 ± 10 nM; in the series with LNCaP cells (Homo sapiens, LNCaP, Table 1, LNCaP, time and Cu not given, read-out: IC50 values), 120 nM; in the series on PWR-1E cells (Homo sapiens, PWR-1E, 24 h, PWR-1E, 24 h, 1 μM CuSO4, read-out: IC50 with 1 μM CuSO4) it was 80 ± 20 nM. The IC50 was 70 ± 10 nM with PWR-1E cells (Homo sapiens, PWR-1E, 72 h, PWR-1E, 72 h, 1 μM CuSO4, read-out: IC50 with 1 μM CuSO4); 72 nM with PWR-1E cells (Homo sapiens, PWR-1E, Table 1, PWR-1E, time and Cu not given, read-out: IC50 values); 70 ± 10 nM with PC-3 cells (Homo sapiens, PC-3, 24 h, 1 μM CuSO4, read-out: IC50 with 1 μM CuSO4); 57 ± 10 nM in the series on PC-3 cells (Homo sapiens, PC-3, 72 h, 1 μM CuSO4, read-out: IC50 with 1 μM CuSO4); 66 nM with PC-3 cells (Homo sapiens, Table 1, PC-3, time and Cu not given, read-out: IC50 values); 180 ± 10 nM in the series with MCF-7 cells (Homo sapiens, MCF7, MCF-7, 24 h, 1 μM CuSO4, read-out: IC50 with 1 μM CuSO4). Also, the IC50 in the series on MCF-7 cells (Homo sapiens, MCF7, MCF-7, 72 h, 1 μM CuSO4, read-out: IC50 with 1 μM CuSO4) was 47 ± 2 nM; in the series on MCF-7 cells (Homo sapiens, MCF7, Table 1, MCF-7, time and Cu not given, read-out: IC50 values) it was 130 nM; in the series on 22Rv1 cells (Homo sapiens, 22Rv1, 24 h, 1 μM CuSO4, read-out: IC50 with 1 μM CuSO4) it was 72 ± 10 nM; in the series on 22Rv1 cells (Homo sapiens, 22Rv1, 72 h, 1 μM CuSO4, read-out: IC50 with 1 μM CuSO4) it was 92 ± 5 nM; with 22Rv1 cells (Homo sapiens, Table 1, 22Rv1, time and Cu not given, read-out: IC50 values) it was 65 nM. In addition, in the series with mCRPC patients, the “patients who developed grade 3 adverse events” value was 6 of the 12. In addition, the “toxicity and efficacy outcome” value in the series with mCRPC patients is recorded as “significant toxicity without improvement in efficacy”. Besides, the “Cu(II) added to the growth medium required for antiproliferative activity” value in the series with 22Rv1 cells (checkerboard pilot studies in 22Rv1 cells) came to 300 nM.

Take `CCN(CC)C(=S)SCc1ccc(NC(=O)[C@@H](CC(C)C)NC(=O)[C@@H](CO)NC(=O)[C@@H](Cc2ccc(O)cc2)NC(=O)[C@@H](Cc2ccc(O)cc2)NC(=O)[C@@H](CO)NC(=O)[C@@H](CO)NC(=O)[C@H](N)CCCNC(=N)N)cc1` [PSA-DTC] (H-[dR][dS][dS][dY][dY][dS][dL]-X1): the “release of DTC on treatment with aminopeptidases” value in the series on aminopeptidases is recorded as “led to the release of DTC”. Further, in series [2], the “time to complete cleavage” value is listed as no more than 4 h. The “time to complete conversion to products” value with PSA enzyme was no more than 6 h. Moreover, the 50% inhibitory concentration (IC50) in the series on LNCaP cells turned out to be 390 nM; in the series on PWR-1E cells it was 500 nM; in the series with PC-3 cells, 490 nM; with MCF-7 cells it was 330 nM; in the series on 22Rv1 cells, 770 nM. Also, the “antiproliferative activity in checker board assay with Cu” value in the series on LNCaP cells (LNCaP, varying Cu and prodrug, within 24 h (dPSA-DTC: even after 72 h)) is “showed antiproliferative activity in the presence of Cu”.

As for `N[C@@H](CCC(=O)N[C@@H](CS)C(=O)NCC(=O)O)C(=O)O` [GSH, glutathione, reference compound], the inhibitory constant (Ki) on GGT worked out at 99000 ± 7000 nM.

The values above are taken from US11007273B2, “Prochelators as targeted prodrugs for prostate cancer and methods of making and using same” (Duke University, priority 2017, dated 2021).
